According to patent US8471005B2 (Cephalon, Inc., priority 2008, dated 2013):
Like-named read-outs stand apart in the source and are kept apart here.

Assays:
ALK = biological target: T1, ALK (Homo sapiens, UniProt Q9UM73); experiment: ALK Kinase Assay (ELISA/TRF, PLC-γ substrate); assay type: biochemical; settings: read-out: ALK Potency
T1 construct: host or cells: baculovirus expression system
Method in brief: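 Read-out is time-resolved fluorescence from a Eu-N1-labeled PT66 antibody that binds phosphorylated PLC-γ, the substrate coated at 10 μg/mL in TBS. ALK at 30 ng/ml starts the reaction, which runs 15 minutes at 37° C.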

JAK2 = biological target: T2, JAK2 (Homo sapiens, UniProt O60674); experiment: Recombinant Human JAK2 Kinase Assay (TRF); assay type: biochemical; settings: read-out: JAK2 Potency
T2 construct: host or cells: baculovirus expression system
T2 sequence (O60674 whole entry): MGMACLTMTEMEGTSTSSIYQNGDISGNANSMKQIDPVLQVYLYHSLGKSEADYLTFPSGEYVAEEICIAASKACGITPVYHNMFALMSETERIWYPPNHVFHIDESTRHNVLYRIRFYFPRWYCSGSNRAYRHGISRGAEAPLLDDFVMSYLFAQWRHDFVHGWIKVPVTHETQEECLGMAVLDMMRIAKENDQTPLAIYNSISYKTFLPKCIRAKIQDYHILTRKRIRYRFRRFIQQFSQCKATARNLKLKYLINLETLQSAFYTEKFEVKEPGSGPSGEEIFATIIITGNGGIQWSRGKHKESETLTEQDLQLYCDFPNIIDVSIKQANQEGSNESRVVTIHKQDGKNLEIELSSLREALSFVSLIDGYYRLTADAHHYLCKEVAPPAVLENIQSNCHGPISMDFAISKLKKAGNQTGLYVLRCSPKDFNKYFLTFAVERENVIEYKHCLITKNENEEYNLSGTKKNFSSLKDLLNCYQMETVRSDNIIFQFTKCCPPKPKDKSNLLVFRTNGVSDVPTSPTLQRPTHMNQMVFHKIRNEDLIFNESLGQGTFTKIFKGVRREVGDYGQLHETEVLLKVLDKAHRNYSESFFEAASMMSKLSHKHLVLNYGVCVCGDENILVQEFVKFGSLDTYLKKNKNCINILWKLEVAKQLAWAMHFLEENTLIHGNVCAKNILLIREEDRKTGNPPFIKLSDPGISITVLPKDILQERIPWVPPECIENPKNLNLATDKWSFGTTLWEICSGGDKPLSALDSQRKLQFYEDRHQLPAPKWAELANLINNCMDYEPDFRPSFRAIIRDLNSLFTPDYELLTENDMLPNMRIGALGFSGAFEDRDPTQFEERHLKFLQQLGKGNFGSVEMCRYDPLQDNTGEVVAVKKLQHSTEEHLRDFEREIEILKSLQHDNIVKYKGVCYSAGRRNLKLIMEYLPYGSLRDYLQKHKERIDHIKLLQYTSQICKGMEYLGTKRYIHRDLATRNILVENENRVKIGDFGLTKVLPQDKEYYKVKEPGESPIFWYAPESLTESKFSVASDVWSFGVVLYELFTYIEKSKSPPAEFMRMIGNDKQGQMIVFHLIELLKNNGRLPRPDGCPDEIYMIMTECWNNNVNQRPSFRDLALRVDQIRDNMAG
Method in brief: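 Baculovirus-expressed JAK2 (15 ng/ml) phosphorylated a biotinylated 15-mer peptide captured on Neutravidin-coated plates, in 20 mM HEPES pH 7.2 with 0.2 μM ATP, 1 mM MnCl2, 0.1% BSA and 2.5% DMSO. Reaction ran 20 min at room temperature; phosphopeptide was detected by time-resolved fluorescence with Eu-N1-labelled PY100 antibody.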

[1] = ALK kinase inhibition, 1 μM ATP
[2] = JAK2 kinase inhibition, 0.2 μM ATP

T1 sequence (Q9UM73 19-1620): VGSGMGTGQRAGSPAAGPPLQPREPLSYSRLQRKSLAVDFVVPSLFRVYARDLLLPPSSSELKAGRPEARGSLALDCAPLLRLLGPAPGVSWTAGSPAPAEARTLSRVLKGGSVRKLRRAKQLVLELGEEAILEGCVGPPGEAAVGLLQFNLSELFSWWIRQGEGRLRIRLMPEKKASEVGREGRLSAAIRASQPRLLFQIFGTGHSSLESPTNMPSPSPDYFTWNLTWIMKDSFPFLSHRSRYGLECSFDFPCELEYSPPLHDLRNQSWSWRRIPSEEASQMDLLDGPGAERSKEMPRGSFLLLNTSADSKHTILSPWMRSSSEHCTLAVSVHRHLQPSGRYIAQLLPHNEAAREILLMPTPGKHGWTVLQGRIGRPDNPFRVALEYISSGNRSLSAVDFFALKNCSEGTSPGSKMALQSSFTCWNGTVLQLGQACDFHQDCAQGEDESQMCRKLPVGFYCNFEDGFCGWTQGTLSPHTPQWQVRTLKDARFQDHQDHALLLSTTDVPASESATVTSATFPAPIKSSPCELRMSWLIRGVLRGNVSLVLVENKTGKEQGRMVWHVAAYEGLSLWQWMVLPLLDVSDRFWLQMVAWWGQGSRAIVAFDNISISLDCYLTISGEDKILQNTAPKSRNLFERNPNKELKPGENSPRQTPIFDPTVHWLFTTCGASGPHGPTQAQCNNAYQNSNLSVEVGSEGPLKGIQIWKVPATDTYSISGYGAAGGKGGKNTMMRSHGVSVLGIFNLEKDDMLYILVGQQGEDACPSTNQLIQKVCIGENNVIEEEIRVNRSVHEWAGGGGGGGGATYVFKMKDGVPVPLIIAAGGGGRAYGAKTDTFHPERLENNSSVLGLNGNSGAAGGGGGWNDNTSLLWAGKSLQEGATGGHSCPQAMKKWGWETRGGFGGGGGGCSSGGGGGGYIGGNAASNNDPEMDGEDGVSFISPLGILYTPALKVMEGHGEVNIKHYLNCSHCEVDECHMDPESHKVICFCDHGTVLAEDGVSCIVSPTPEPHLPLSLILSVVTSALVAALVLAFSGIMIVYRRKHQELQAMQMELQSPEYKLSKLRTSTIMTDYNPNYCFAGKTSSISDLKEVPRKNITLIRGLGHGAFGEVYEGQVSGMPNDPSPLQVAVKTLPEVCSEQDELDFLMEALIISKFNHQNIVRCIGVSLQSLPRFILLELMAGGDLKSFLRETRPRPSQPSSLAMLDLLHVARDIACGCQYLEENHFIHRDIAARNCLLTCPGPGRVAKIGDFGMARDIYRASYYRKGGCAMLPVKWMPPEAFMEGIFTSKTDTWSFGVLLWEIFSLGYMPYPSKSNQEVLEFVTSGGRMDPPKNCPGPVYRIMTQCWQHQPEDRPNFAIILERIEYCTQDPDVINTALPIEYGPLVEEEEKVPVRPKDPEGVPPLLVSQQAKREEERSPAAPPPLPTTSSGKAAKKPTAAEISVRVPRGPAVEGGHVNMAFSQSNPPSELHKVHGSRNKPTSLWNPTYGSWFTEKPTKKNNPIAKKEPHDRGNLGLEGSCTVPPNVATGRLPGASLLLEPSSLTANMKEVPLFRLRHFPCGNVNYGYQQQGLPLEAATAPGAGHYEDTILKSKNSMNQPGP

Compound | IC50 (ALK; [1]) | IC50 (JAK2; [2]) | IC50 (ALK; ALK Kinase Inhibition) | IC50 (JAK2; JAK2 Kinase Inhibition)
CN1CCN(C)C(c2cccc(Nc3ncc4ccc(-c5cccc(S(=O)(=O)N6CCCC6)c5)n4n3)c2)C1=O (centres unmarked) [Example 1079, 1,4-Dimethyl-3-(3-{7-[3-(pyrrolidine-1-sulfonyl)-phenyl]-pyrrolo[2,1-f][1,2,4]triazin-2-ylamino}-phenyl)-piperazin-2-one] | 1000 to 10000 nM | < 100 nM |  | 
Brc1ccc(Nc2ncc3cc4ccccc4n3n2)cc1 [Example 751, (4-Bromo-phenyl)-[1,2,4]triazino[1,6-a]indol-2-yl-amine] | > 10000 nM | > 10000 nM |  | 
COc1ccc(OC)c(-c2ccc3cnc(Nc4ccc(N5CCN(C[C@H](C)O)CC5)cc4OC)nn23)c1 [Example 1477, (S)-1-(4-{4-[7-(2,5-Dimethoxy-phenyl)-pyrrolo[2,1-f][1,2,4]triazin-2-ylamino]-3-methoxy-phenyl}-piperazin-1-yl)-propan-2-ol] |  |  | < 100 nM | 1000 to 10000 nM
COc1ccccc1-c1ccc2cnc(Nc3ccc(N4CCN(C)CC4)cn3)nn12 [Example 1177, [7-(2-Methoxy-phenyl)-pyrrolo[2,1-f][1,2,4]triazin-2-yl]-[5-(4-methyl-piperazin-1-yl)-pyridin-2-yl]-amine] | 100 to 1000 nM | < 100 nM |  | 
COc1cc(CN2CCN(C[C@H](C)O)CC2)ccc1Nc1ncc2ccc(-c3ccccc3OC)n2n1 [Example 1226, (S)-1-(4-{3-Methoxy-4-[7-(2-methoxy-phenyl)-pyrrolo[2,1-f][1,2,4]triazin-2-ylamino]-benzyl}-piperazin-1-yl)-propan-2-ol] | < 100 nM | 100 to 1000 nM |  | 
COc1ccccc1-c1ccc2cnc(Nc3ccc4c(c3)ncn4CCN3CCOCC3)nn12 [Example 1348, [7-(2-Methoxy-phenyl)-pyrrolo[2,1-f][1,2,4]triazin-2-yl]-[1-(2-morpholin-4-yl-ethyl)-1H-benzimidazol-5-yl]-amine] | 100 to 1000 nM | < 100 nM |  | 
CN1C(=O)COc2cc(Nc3ncc4ccc(-c5cccc(NS(C)(=O)=O)c5)n4n3)ccc21 [Example 638, N-{3-[2-(4-Methyl-3-oxo-3,4-dihydro-2H-benzo[1,4]oxazin-7-ylamino)-pyrrolo[2,1-f][1,2,4]triazin-7-yl]-phenyl}methanesulfonamide] | 100 to 1000 nM | < 100 nM |  | 
CC(C)(C)NS(=O)(=O)c1cccc(-c2ccc3cnc(Nc4cncc(C(N)=O)c4)nn23)c1 [Example 665, 5-[7-(3-tert-Butylsulfamoyl-phenyl)-pyrrolo[2,1-f][1,2,4]triazin-2-ylamino]-nicotinamide] | > 10000 nM | < 100 nM |  | 
COc1ccc(-c2ccc3cnc(Nc4cc5c(cc4F)CCC(=O)N5)nn23)cn1 [Example 983, 6-Fluoro-7-[7-(6-methoxy-pyridin-3-yl)-pyrrolo[2,1-f][1,2,4]triazin-2-ylamino]-3,4-dihydro-1H-quinolin-2-one] | > 10000 nM | < 100 nM |  | 
COc1ccc(-c2ccc3cnc(Nc4ccc(C5CCN(C)CC5)c(C)c4)nn23)cn1 [Example 941, [7-(6-Methoxy-pyridin-3-yl)-pyrrolo[2,1-f][1,2,4]triazin-2-yl]-[3-methyl-4-(1-methyl-piperidin-4-yl)-phenyl]-amine] | < 100 nM | < 100 nM |  | 
CN1CCN(c2ccc(Nc3ncc4ccc(-c5ccccc5NC(=O)C(C)(C)C)n4n3)cc2)CC1 [Example 403, 2,2-Dimethyl-N-(2-{2-[4-(4-methyl-piperazin-1-yl)-phenylamino]-pyrrolo[2,1-f][1,2,4]triazin-7-yl}-phenyl)-propionamide] |  |  | > 10000 nM | 1000 to 10000 nM
CN(c1ccccc1-c1ccc2cnc(Nc3ccc4c(c3)CCN(CC(N)=O)C4)nn12)S(C)(=O)=O [Example 918, 2-(6-{7-[2-(Methanesulfonyl-methyl-amino)-phenyl]-pyrrolo[2,1-f][1,2,4]triazin-2-ylamino}-3,4-dihydro-1H-isoquinolin-2-yl)-acetamide] | 100 to 1000 nM | < 100 nM |  | 
O=S1(=O)CCCN1c1cccc(-c2ccc3cnc(Nc4ccc5nc[nH]c5c4)nn23)c1 [Example 1511, N-(1H-Benzimidazol-6-yl)-7-[3-(1,1-dioxido-1,2-thiazolidin-2-yl)phenyl]pyrrolo[2,14][1,2,4]triazin-2-amine] |  |  | 1000 to 10000 nM | < 100 nM
OC[C@@H](O)CN1CCC(c2ccc(Nc3ncc4ccc(-c5cccc(Cl)c5)n4n3)cc2)CC1 [Example 1130, (S)-3-(4-{4-[7-(3-Chloro-phenyl)-pyrrolo[2,1-f][1,2,4]triazin-2-ylamino]-phenyl}-piperidin-1-yl)-propane-1,2-diol] | < 100 nM | < 100 nM |  | 
CC(C)(C)NS(=O)(=O)c1cccc(-c2ccc3cnc(Nc4ccc5[nH]c(=O)[nH]c5c4)nn23)c1 [Example 1298, N-tert-Butyl-3-[2-(2-oxo-2,3-dihydro-1H-benzimidazol-5-ylamino)-pyrrolo[2,1-f][1,2,4]triazin-7-yl]-benzenesulfonamide] | 100 to 1000 nM | < 100 nM |  | 
COc1ccc(-c2ccc3cnc(Nc4ccc(N5CCC[C@@H](C(=O)N6CCN(C)CC6)C5)cc4OC)nn23)cn1 [Example 464, ((R)-1-{3-Methoxy-4-[7-(6-methoxy-pyridin-3-yl)-pyrrolo[2,1-f][1,2,4]triazin-2-ylamino]-phenyl}-piperidin-3-yl)-(4-methyl-piperazin-1-yl)-methanone] |  |  | 100 to 1000 nM | < 100 nM
CS(=O)(=O)c1ccc(-c2ccc3cnc(Nc4ccc(C5CCN(CC(N)=O)CC5)cc4)nn23)cc1 [Example 1435, 2-(4-{4-[7-(4-Methanesulfonyl-phenyl)-pyrrolo[2,1-f][1,2,4]triazin-2-ylamino]-phenyl}-piperidin-1-yl)-acetamide] |  |  | 100 to 1000 nM | < 100 nM
CS(=O)(=O)c1ccc(-c2ccc3cnc(Nc4cccc(N5CCOCC5)c4)nn23)cc1F [Example 193, [7-(3-Fluoro-4-methanesulfonyl-phenyl)-pyrrolo[2,1-f][1,2,4]triazin-2-yl]-(3-morpholin-4-yl-phenyl)-amine] |  |  | 1000 to 10000 nM | < 100 nM
CS(=O)(=O)N1CC=C(c2ccc3cnc(Nc4ccc(N5CCOCC5)cc4)nn23)CC1 [Example 1129, [7-(1-Methanesulfonyl-1,2,3,6-tetrahydro-pyridin-4-yl)-pyrrolo[2,1-f][1,2,4]triazin-2-yl]-(4-morpholin-4-yl-phenyl)-amine] | 1000 to 10000 nM | < 100 nM |  | 
COc1ccc(OC)c(-c2ccc3cnc(Nc4ccc(N5CCN(C)CC5)cc4)nn23)c1 [Example 425, [7-(2,5-Dimethoxy-phenyl)-pyrrolo[2,1-f][1,2,4]triazin-2-yl]-[4-(4-methyl-piperazin-1-yl)-phenyl]-amine] |  |  | 100 to 1000 nM | < 100 nM
COc1ccc(-c2ccc3cnc(Nc4cccc(C5(O)CCNCC5)c4)nn23)cn1 [Example 1551, 4-{3-[7-(6-Methoxy-pyridin-3-yl)-pyrrolo[2,1-f][1,2,4]triazin-2-ylamino]-phenyl}-piperidin-4-ol] |  |  | 100 to 1000 nM | < 100 nM
CN(c1ccccc1-c1ccc2cnc(Nc3ccc(Cn4ccnc4)cc3)nn12)S(C)(=O)=O [Example 621, N-{2-[2-(4-Imidazol-1-ylmethylphenylamino)-pyrrolo[2,1-f][1,2,4]triazin-7-yl]phenyl}-N-methyl-methanesulfonamide] | < 100 nM | < 100 nM |  | 
